“And” between values parts separate entries of the source, which are not always exact repeats. Equal entries are not always repeated. Inconclusive results and toxic doses are left out. The calls were made as follows: active = survival T/C of 150% or more; inactive = T/C below 125% in these data.
Tested on: P388 leukemia ip, CD2F1 mice, survival T/C
Test: NCI In Vivo Anticancer Drug Screen. Data for tumor model P388 Leukemia (intraperitoneal) in CD2F1 (CDF1) mice
Settings: endpoint: median survival time, higher = longer survival
How it was run: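 Mice carrying the transplanted tumor received test compound or vehicle. Survival was recorded in each group, and the value is the treated-group measurement divided by that of the vehicle-treated control group.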

[1] = dose: 50.0 mg/kg/injection, schedule: Q01DX005 (ip), vehicle: saline with Tween-80
[2] = dose: 100.0 mg/kg/injection, schedule: Q01DX005 (ip), vehicle: saline with Tween-80
[3] = dose: 25.0 mg/kg/injection, schedule: Q01DX009 (ip), vehicle: saline with Tween-80
[4] = dose: 50.0 mg/kg/injection, schedule: Q01DX009 (ip), vehicle: saline with Tween-80
[5] = dose: 60.0 mg/kg/injection, schedule: Q01DX005 (ip), vehicle: saline
[6] = dose: 120.0 mg/kg/injection, schedule: Q01DX005 (ip), vehicle: saline
[7] = dose: 240.0 mg/kg/injection, schedule: Q01DX005 (ip), vehicle: saline
[8] = dose: 100.0 mg/kg/injection, schedule: Q01DX001 (ip), vehicle: Klucel (hydroxypropylcellulose) (HPC)
[9] = dose: 200.0 mg/kg/injection, schedule: Q01DX001 (ip), vehicle: Klucel (hydroxypropylcellulose) (HPC)
[10] = dose: 400.0 mg/kg/injection, schedule: Q01DX001 (ip), vehicle: Klucel (hydroxypropylcellulose) (HPC)
[11] = dose: 50.0 mg/kg/injection, schedule: Q01DX005 (ip), vehicle: Klucel (hydroxypropylcellulose) (HPC)
[12] = dose: 100.0 mg/kg/injection, schedule: Q01DX005 (ip), vehicle: Klucel (hydroxypropylcellulose) (HPC)
[13] = dose: 200.0 mg/kg/injection, schedule: Q01DX005 (ip), vehicle: Klucel (hydroxypropylcellulose) (HPC)

Measured: T/C

N#C/C=C1\C=CC(O)C(O)C1OC1OC(CO)C(O)C(O)C1O (stereo unspecified)
inactive: dose: 6.0 mg/kg/injection, schedule: Q01DX009 (ip), vehicle: saline 103 % of control | dose: 12.0 mg/kg/injection, schedule: Q01DX009 (ip), vehicle: saline 103 % of control | dose: 24.0 mg/kg/injection, schedule: Q01DX009 (ip), vehicle: saline 100 % of control | dose: 48.0 mg/kg/injection, schedule: Q01DX009 (ip), vehicle: saline 105 % of control

ClCC(Br)CBr (stereo unspecified)
inactive: dose: 37.5 mg/kg/injection, schedule: Q01DX009 (ip), vehicle: saline with Tween-80 104 % of control | dose: 37.5 mg/kg/injection, schedule: Q04DX003 (ip), vehicle: saline with Tween-80 100 % of control | dose: 50.0 mg/kg/injection, schedule: Q01DX009 (ip), vehicle: saline sonified 105 % of control | dose: 75.0 mg/kg/injection, schedule: Q04DX003 (ip), vehicle: saline with Tween-80 90 % of control | dose: 150.0 mg/kg/injection, schedule: Q01DX009 (ip), vehicle: saline with Tween-80 104 % of control | dose: 150.0 mg/kg/injection, schedule: Q04DX003 (ip), vehicle: saline with Tween-80 95 % of control

CC(=O)NC1CCCCC1C1CCC(N)CC1 (stereo unspecified)
inactive: [1] 99 % of control | [2] 102 % of control | dose: 200.0 mg/kg/injection, schedule: Q01DX005 (ip), vehicle: saline with Tween-80 87 % of control

c1ncn(C23CC4CC(CC(C4)C2)C3)n1
inactive: dose: 1.56 mg/kg/injection, schedule: Q01DX001 (ip), vehicle: Klucel (hydroxypropylcellulose) (HPC) 106 % of control | dose: 3.12 mg/kg/injection, schedule: Q01DX001 (ip), vehicle: Klucel (hydroxypropylcellulose) (HPC) 104 % of control | dose: 6.25 mg/kg/injection, schedule: Q01DX001 (ip), vehicle: Klucel (hydroxypropylcellulose) (HPC) 107 % of control and 96 % of control

c1ccc2sc(NC(Nc3nc4ccccc4s3)C34CC5CC(CC(C5)C3)C4)nc2c1
inactive: dose: 12.5 mg/kg/injection, schedule: Q01DX009 (ip), vehicle: saline with Tween-80 98 % of control | [3] 98 % of control | [4] 91 % of control and 96 % of control

COc1cc(C(=O)CC2=NC3NN(c4ccccc4)C(=O)C3=C2CC(=O)c2ccc(O)c(OC)c2)ccc1O (stereo unspecified)
inactive: [5] 100 % of control | [6] 102 % of control | [7] 98 % of control

Oc1ccc2ccccc2c1N=Nc1ccc(Cl)cc1
inactive: dose: 100.0 mg/kg/injection, schedule: Q04DX003 (ip), vehicle: saline with Tween-80 100 % of control | dose: 200.0 mg/kg/injection, schedule: Q04DX003 (ip), vehicle: saline with Tween-80 100 % of control | dose: 400.0 mg/kg/injection, schedule: Q04DX003 (ip), vehicle: saline with Tween-80 90 % of control

COc1nc(N)c(NC(C)=O)c(=O)n1C
inactive: [5] 96 % of control | [6] 96 % of control | [7] 93 % of control

COc1cc2c(cc1OC)-c1cccc3c1N(CC2)CC3
inactive: dose: 25.0 mg/kg/injection, schedule: Q04DX002 (ip), vehicle: saline with Tween-80 100 % of control | dose: 50.0 mg/kg/injection, schedule: Q04DX002 (ip), vehicle: saline with Tween-80 98 % of control | dose: 100.0 mg/kg/injection, schedule: Q04DX002 (ip), vehicle: saline with Tween-80 100 % of control

CCC(C1SC(=S)NC1=O)C1SC(=S)NC1=O (stereo unspecified)
inactive: [1] 92 % of control | [2] 97 % of control

CC(CCC(=O)O)(c1cc(Br)c(O)c(Br)c1)c1cc(Br)c(O)c(Br)c1
inactive: dose: 100.0 mg/kg/injection, schedule: Q04DX003 (ip), vehicle: other 100 % of control | dose: 200.0 mg/kg/injection, schedule: Q04DX003 (ip), vehicle: other 100 % of control | dose: 400.0 mg/kg/injection, schedule: Q04DX003 (ip), vehicle: other 100 % of control

CCn1nnnc1-c1ccccc1
inactive: [8] 91 % of control | [9] 88 % of control | [10] 91 % of control

CC(C)S(=O)(=O)c1s[nH]c(=O)c1-c1ccccc1
inactive: dose: 50.0 mg/kg/injection, schedule: Q01DX009 (ip), vehicle: Klucel (hydroxypropylcellulose) (HPC) 109 % of control | dose: 100.0 mg/kg/injection, schedule: Q01DX009 (ip), vehicle: Klucel (hydroxypropylcellulose) (HPC) 107 % of control | dose: 200.0 mg/kg/injection, schedule: Q01DX009 (ip), vehicle: Klucel (hydroxypropylcellulose) (HPC) 101 % of control

O=C(O)c1ccccc1NC(c1ccccc1)c1ccc2cccnc2c1O (stereo unspecified)
inactive: dose: 100.0 mg/kg/injection, schedule: Q04DX003 (ip), vehicle: Klucel (hydroxypropylcellulose) (HPC) 114 % of control and 115 % of control | dose: 200.0 mg/kg/injection, schedule: Q04DX003 (ip), vehicle: Klucel (hydroxypropylcellulose) (HPC) 113 % of control and 119 % of control

S=C(S)C1=C(NCCCCCCNC2=C(C(=S)S)CCC2)CCC1
inactive: [8] 100 % of control | [9] 94 % of control | [10] 100 % of control

CC(=O)OC1C(C)OC(OC2C(OC(=O)C3CCC4C(C3)OC3(CC(OC(=O)/C=C/c5ccccc5)C(C)CO3)C43CO3)OC(C)C(OC(C)=O)C2OC(C)=O)C(OC(C)=O)C1OC(C)=O (stereo unspecified)
inactive: dose: 3.0 mg/kg/injection, schedule: Q01DX005 (ip), vehicle: saline 100 % of control | dose: 3.75 mg/kg/injection, schedule: Q01DX009 (ip), vehicle: saline + alcohol 100 % of control | dose: 6.0 mg/kg/injection, schedule: Q01DX005 (ip), vehicle: saline 106 % of control | dose: 7.5 mg/kg/injection, schedule: Q01DX009 (ip), vehicle: saline + alcohol 98 % of control | dose: 12.0 mg/kg/injection, schedule: Q01DX005 (ip), vehicle: saline 99 % of control | dose: 15.0 mg/kg/injection, schedule: Q01DX009 (ip), vehicle: saline + alcohol 102 % of control | dose: 24.0 mg/kg/injection, schedule: Q01DX005 (ip), vehicle: saline 106 % of control | dose: 30.0 mg/kg/injection, schedule: Q01DX009 (ip), vehicle: saline + alcohol 104 % of control

C=C(C(=O)N(C(C)C)C(C)C)C(C)CC(C)C(=O)N(C(C)C)C(C)C (stereo unspecified)
inactive: dose: 50.0 mg/kg/injection, schedule: Q04DX002 (ip), vehicle: Klucel (hydroxypropylcellulose) (HPC) 99 % of control | dose: 100.0 mg/kg/injection, schedule: Q04DX002 (ip), vehicle: Klucel (hydroxypropylcellulose) (HPC) 104 % of control | dose: 200.0 mg/kg/injection, schedule: Q04DX002 (ip), vehicle: Klucel (hydroxypropylcellulose) (HPC) 107 % of control | dose: 400.0 mg/kg/injection, schedule: Q04DX002 (ip), vehicle: Klucel (hydroxypropylcellulose) (HPC) 104 % of control

CCN1N=Nc2ccccc2C1O (stereo unspecified)
inactive: dose: 12.5 mg/kg/injection, schedule: Q04DX002 (ip), vehicle: saline 98 % of control | dose: 25.0 mg/kg/injection, schedule: Q04DX002 (ip), vehicle: saline 98 % of control | dose: 50.0 mg/kg/injection, schedule: Q04DX002 (ip), vehicle: saline 100 % of control

Brc1cnc2nc(Cc3cccc4ccccc34)[nH]c2c1
inactive: dose: 100.0 mg/kg/injection, schedule: Q01DX001 (ip), vehicle: saline with Tween-80 109 % of control | dose: 200.0 mg/kg/injection, schedule: Q01DX001 (ip), vehicle: saline with Tween-80 103 % of control | dose: 400.0 mg/kg/injection, schedule: Q01DX001 (ip), vehicle: saline with Tween-80 97 % of control

CCOC(=O)CC(O)(c1ccc2c(c1)OCO2)c1cc(OC)c(OC)c(OC)c1 (stereo unspecified)
inactive: dose: 12.5 mg/kg/injection, schedule: Q01DX005 (ip), vehicle: Klucel (hydroxypropylcellulose) (HPC) 100 % of control | dose: 25.0 mg/kg/injection, schedule: Q01DX005 (ip), vehicle: Klucel (hydroxypropylcellulose) (HPC) 94 % of control | [11] 94 % of control | [12] 89 % of control | [13] 88 % of control

CCc1nc(N)nc(N)c1-c1ccc(N2CCNCC2)cc1
inactive: [11] 96 % of control | [12] 95 % of control | [13] 101 % of control

O=C(CI)NCCNc1cccc2c(S(=O)(=O)O)cccc12
inactive: [3] 102 % of control | [4] 100 % of control | dose: 100.0 mg/kg/injection, schedule: Q01DX009 (ip), vehicle: saline with Tween-80 110 % of control and 95 % of control
